This passage reports IC50 results from BindingDB's records for patent US8962648 (Oncotherapy Science, 2015).

Several values for one entry are separate records, joined by “and”; a condition that tells them apart may be missing. Identical values can stand only once.

The target of this assay is T1, Lymphokine-activated killer T-cell-originated protein kinase (Homo sapiens, UniProt Q96KB5).
T1 sequence (Q96KB5 whole entry): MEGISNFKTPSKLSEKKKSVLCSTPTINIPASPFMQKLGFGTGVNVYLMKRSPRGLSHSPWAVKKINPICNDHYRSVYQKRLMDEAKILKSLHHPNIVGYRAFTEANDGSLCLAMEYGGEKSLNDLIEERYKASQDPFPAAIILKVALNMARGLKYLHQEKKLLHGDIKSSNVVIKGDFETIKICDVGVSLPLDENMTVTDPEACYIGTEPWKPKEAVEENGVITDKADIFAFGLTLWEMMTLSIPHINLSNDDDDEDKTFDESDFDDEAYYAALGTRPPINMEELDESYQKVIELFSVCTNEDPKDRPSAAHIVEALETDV
The assay is described as follows: Kinase Assay. As to conditions: pH 7.4; 25 °C. How it is done: PBK activity was determined in the presence or absence of compounds using fluorescein isothiocyanate-labeled (FITC-labeled) histone H3 peptide as a substrate. […] The serially diluted compounds, 0.8 ng/micro-L PBK (Carna Biosciences) and 100 nM FITC-labeled histone H3 peptide were reacted in a reaction buffer (20 mM HEPES, 0.01% Tween-20, 0.3 mM MgCl2, 2 mM dithiothreitol, 50 micro-M ATP, pH 7.4) at room temperature for 1 hour. The reaction was stopped by the addition of three fold assay volume of progressive binding solution. Following 0.5 hour incubation at room temperature.
Regarding `Cc1cc(O)c(-c2ccc(C(C)(C)CN)c(F)c2)c2c1[nH]c(=O)c1sccc12` [US8962648, 1278], half-maximal inhibition (IC50) was put at 22 nM.

As to `COc1ccc2[nH]c(=O)c3sccc3c2c1-c1ccc(S(=O)(=O)NCCF)cc1` [US8962648, 333], inhibition was half-maximal at 31 nM (IC50).

On to `COc1ccc2[nH]c(=O)c3sccc3c2c1-c1ccc([C@@H](C)N)cc1` [US8962648, 274], for which half-maximal inhibition (IC50) was put at 3.8 nM.

Regarding `CCC(CN)c1ccc(-c2c(O)ccc3[nH]c(=O)c4sccc4c23)cc1` (configuration not stated) [US8962648, 1309], the IC50 (usually the point on the concentration scale where inhibition reaches its midpoint) is 0.74 nM. Regarding `CN(C)CC(C)(C)c1ccc(-c2c(O)ccc3[nH]c(=O)c4sccc4c23)cc1` [US8962648, 308], the IC50 was 2.8 nM.

As to `COc1ccc2[nH]c(=O)c3sccc3c2c1-c1ccc(CCN)cc1` [US8962648, 169], the midpoint of inhibition, the IC50, lay at 22 nM. Compound `Cc1cc(O)c(-c2ccc([C@@H](C)CN)cc2)c2c1[nH]c(=O)c1sc(Cl)cc12` [US8962648, 1353] came in with a concentration for half-maximal inhibition (IC50) of 4 nM.

For `CCN(CC)Cc1ccc(-c2c(O)ccc3[nH]c(=O)c4sccc4c23)cc1` [US8962648, 184], 7.7 nM corresponded to half-maximal inhibition (IC50).

Take `CC(N)c1ccc(-c2c(O)cc(Br)c3[nH]c(=O)c4sccc4c23)cc1` (configuration not stated) [US8962648, 1032]: the IC50 turned out to be 47 nM. `CC[C@H](N)c1ccc(-c2c(O)ccc3[nH]c(=O)c4sccc4c23)cc1` [US8962648, 1120] showed a 50% inhibitory concentration (IC50) of 0.88 nM. The compound `COc1cc(C)c2[nH]c(=O)c3sc(C)cc3c2c1-c1ccc([C@@H](C)CN)cc1` [US8962648, 1341] displayed a 50% inhibitory concentration (IC50) of 38 nM. Compound `N#CCCc1ccc(-c2c(O)ccc3[nH]c(=O)c4sccc4c23)cc1` [US8962648, 290] displayed an IC50 of 3.2 nM.

`CC[C@H](N)c1ccc(-c2c(OC)ccc3[nH]c(=O)c4sccc4c23)cc1` [US8962648, 1121] had an IC50 of 2.9 nM. Consider `CC(C)OC(=O)Oc1ccc2[nH]c(=O)c3sccc3c2c1-c1ccc(C(C)N)cc1` (configuration not stated) [US8962648, 1077], for which the IC50 is 76 nM. The value for `CC(C)(CN)c1ccc(-c2c(O)ccc3[nH]c(=O)c4sccc4c23)cc1` [US8962648, 277] was 0.67 nM; that for `Cc1cc(O)c(-c2ccc(C3(CN)CCC3)cc2)c2c1[nH]c(=O)c1sccc12` [US8962648, 1290] was 10 nM; that for `C[C@@H](c1ccc(-c2c(O)ccc3[nH]c(=O)c4sccc4c23)cc1)N(C)C` [US8962648, 335] was 2.9 nM. For `NCCCc1ccc(-c2c(O)ccc3[nH]c(=O)c4sccc4c23)cc1` [US8962648, 273], the IC50 was 0.74 nM. For the compound `COc1cc(Br)c2[nH]c(=O)c3sccc3c2c1-c1ccc(C2(CN)CC2)cc1` [US8962648, 1391], half-maximal inhibition (IC50) required 70 nM. Regarding `CC[C@@H](N)c1ccc(-c2c(O)cc(Cl)c3[nH]c(=O)c4sccc4c23)cc1` [US8962648, 1159], the IC50 was 26 nM. The value for `COc1cc(C)c2[nH]c(=O)c3sccc3c2c1-c1ccc(C2(CN)CCC2)cc1` [US8962648, 1297] was 35 nM. Regarding `NCc1ccc(-c2c(O)ccc3[nH]c(=O)c4sccc4c23)s1` [US8962648, 266], the IC50 stood at 0.78 nM. In the case of `CCC(N)c1ccc(-c2c(O)ccc3[nH]c(=O)c4sccc4c23)cc1` (configuration not stated) [US8962648, 336], the half-maximal inhibitory concentration (IC50) is 0.82 nM. In turn, `CNCCc1ccc(-c2c(O)cc(C)c3[nH]c(=O)c4sccc4c23)cc1F` [US8962648, 1258] registered an IC50 of 25 nM. The result for `CC[C@H](NC)c1ccc(-c2c(O)cc(Cl)c3[nH]c(=O)c4sccc4c23)cc1` [US8962648, 1154] reads 9.4 nM; that for `O=c1[nH]c2ccc(O)c(-c3ccc(S(=O)(=O)NCCCl)cc3)c2c2c1CCC2` [US8962648, 1145], 13 nM; that for `CCC(CN)c1ccc(-c2c(O)cc(Cl)c3[nH]c(=O)c4sccc4c23)cc1` (configuration not stated) [US8962648, 1312], 19 nM. The value for `C[C@@H](N)c1ccc(-c2c(O)ccc3[nH]c(=O)c4sccc4c23)cc1` [US8962648, 275] was 0.54 nM.

For `NCCc1cc(Br)c(-c2c(O)ccc3[nH]c(=O)c4sccc4c23)cc1O` [US8962648, 1224], half-maximal inhibition (IC50) was put at 6.4 nM. The result for `NCCc1ccc(-c2c(O)ccc3[nH]c(=O)c4sccc4c23)cc1F` [US8962648, 276] reads 0.5 nM; that for `CNCCc1ccc(-c2c(O)cc(Br)c3[nH]c(=O)c4sccc4c23)cc1F` [US8962648, 1245], 45 nM. For the compound `Nc1ccc(-c2c(O)ccc3[nH]c(=O)c4sccc4c23)cc1O` [US8962648, 217], the 50% inhibitory concentration (IC50) is 2.3 nM. The value for `O=c1[nH]c2ccc(O)c(-c3ccc(S(=O)(=O)NCCBr)cc3)c2c2ccsc12` [US8962648, 210] was 11.3 nM; that for `CNC[C@@H](C)c1ccc(-c2c(O)ccc3[nH]c(=O)c4sccc4c23)cc1` [US8962648, 1197] was 2.8 nM; that for `O=c1[nH]c2ccc(O)c(-c3ccc(S(=O)(=O)NCCBr)c(F)c3)c2c2ccsc12` [US8962648, 297] was 13 nM. `CCN(CC)C(C)c1ccc(-c2c(O)ccc3[nH]c(=O)c4sccc4c23)cc1F` (configuration not stated) [US8962648, 356]: the IC50 is 3.6 nM. On to `COc1ccc2[nH]c(=O)c3sccc3c2c1-c1ccc(CN(C)C)cc1` [US8962648, 164], for which the IC50 was 11 nM. As to `O=c1[nH]c2ccc(O)c(C3=CCNCC3)c2c2ccsc12` [US8962648, 84], the IC50 turned out to be 0.78 nM. With `CC(C)(N)c1ccc(-c2c(O)ccc3[nH]c(=O)c4sccc4c23)cc1` [US8962648, 319], the IC50 came to 0.43 nM.

In turn, `COc1ccc2[nH]c(=O)c3sccc3c2c1-c1ccc(CN2CCC(CNC(=O)OC(C)(C)C)CC2)cc1` [US8962648, 139] showed an IC50 of 9.4 nM. Take `NCC1CCN(Cc2ccc(-c3c(O)ccc4[nH]c(=O)c5sccc5c34)cc2F)CC1` [US8962648, 235]: the IC50 was 0.57 nM. Take `CS(=O)(=O)NCc1ccc(-c2c(O)ccc3[nH]c(=O)c4sccc4c23)cc1` [US8962648, 212]: the IC50 is 5.5 nM. Take `Cc1cc2c(s1)c(=O)[nH]c1ccc(O)c(-c3ccc(CN)cc3)c12` [US8962648, 95]: the IC50 was determined as 4.4 nM. Compound `CCC(c1ccc(-c2c(O)ccc3[nH]c(=O)c4sccc4c23)cc1)N(CC)CC` (configuration not stated) [US8962648, 338] showed a 50% inhibitory concentration (IC50) of 3.7 nM.

Take `CN(C)CCc1ccc(-c2c(O)ccc3[nH]c(=O)c4sccc4c23)cc1F` [US8962648, 327]: the IC50 was 1.9 nM. The value for `NCc1ccc(-c2c(O)cc(Br)c3[nH]c(=O)c4sccc4c23)cc1` [US8962648, 270] was 31 nM; that for `CC(N)c1ccc(-c2c(O)ccc3[nH]c(=O)c4sccc4c23)cc1F` (configuration not stated) [US8962648, 359] was 0.92 nM; that for `CC(c1ccc(-c2c(O)ccc3[nH]c(=O)c4sccc4c23)cc1)N(C)C` (configuration not stated) [US8962648, 192] was 1.6 nM and 1.9 nM. The value for `CC(N)Cc1ccc(-c2c(O)cc(Cl)c3[nH]c(=O)c4sccc4c23)cc1` (configuration not stated) [US8962648, 1106] was 41 nM; that for `O=c1[nH]c2ccc(O)c(-c3ccc(S(=O)(=O)NCCBr)cc3)c2c2c1CCC2` [US8962648, 1094] was 10 nM. `CC[C@@H](N)c1ccc(-c2c(O)ccc3[nH]c(=O)c4sccc4c23)cc1` [US8962648, 1131] registered a half-maximal inhibitory concentration (IC50) of 1.3 nM.

`N#CCc1ccc(-c2c(O)ccc3[nH]c(=O)c4sccc4c23)cc1` [US8962648, 81] had an IC50 of 12 nM. On to `COc1ccc2[nH]c(=O)c3sccc3c2c1-c1ccc([C@H](C)N)cc1` [US8962648, 232], for which half-maximal inhibition (IC50) required 7.4 nM. Compound `NCc1ccc(-c2c(O)cc(Cl)c3[nH]c(=O)c4sccc4c23)cc1` [US8962648, 329] showed an IC50 of 16 nM. The value for `Cc1cc(O)c(-c2ccc(C3(CN(C)C)CCC3)cc2)c2c1[nH]c(=O)c1sccc12` [US8962648, 1372] was 42 nM; that for `CCC(N)c1ccc(-c2c(O)cc(Cl)c3[nH]c(=O)c4sccc4c23)cc1` (configuration not stated) [US8962648, 1088] was 16 nM; that for `C[C@H](CN(C)C)c1ccc(-c2c(O)ccc3[nH]c(=O)c4sccc4c23)cc1` [US8962648, 1172] was 4 nM.
